Reference: patent publication US20240293387A1, “Methods of Treating Fabry Disease in Pediatric Patients” (Amicus Therapeutics, Inc., priority 2021, published 2024)

Key:
[1] = Population PK (popPK) model of migalastat in adults (NONMEM, bootstrap); set-up: species or system human; details: for Typical V2/F, Estimate (% RSE): Fabry disease; for Typical V2/F, Estimate (% RSE) / Typical Q/F, Estimate (% RSE) / Typical V3/F, Estimate (% RSE): body weight ≥ 70 kg
Experimental: A population pharmacokinetics (popPK) model previously developed from healthy adult volunteers and adult patients with Fabry disease after oral migalastat administration. After pooling plasma concentration-time data from Phase I, II, and III studies of AT1001 administered orally in adults using a range of doses from 25 mg to 675 mg and regimens under fasting conditions. […] In contrast, other covariates such as sex, age, drug formulation (solution or suspension vs 25 mg capsule vs 150 mg capsule) were not statistically/clinically significant. Since renal function gradually increases from birth and reaches adult levels by the second year of life (Rubin 1949), there are no expected age-dependent changes in eGFR in the pediatric population 2 years and older than adults. Additionally, pediatric patients with Fabry disease usually have a normal renal function or may experience renal hyperfiltration (Hopkin 2008); therefore, weight-based dosing regimens, assuming that pediatrics have a normal renal function, were planned for the simulations in pediatric Fabry patients. NONMEM program was used to develop the population PK model of migalastat in adults using first-order conditional estimation with interaction (FOCE-I). Simulations were conducted using NONMEM to obtain plasma concentration-time; all graphical analyses were performed using R; noncompartmental analysis and pharmacokinetic parameters summaries were conducted using Phoenix WinNonlin. Bootstrapping and visual predictive checks (VPC)s were conducted using Perl-speaks-NONMEM (PsN) R packages of popED and mrgsolve were used in the optimal sampling strategy. […] The overall purpose of the model development was to come up with a model for pediatric extrapolation. […] Moreover, pediatric CLT/F values extrapolated from the non-renal model were higher than the overall CLT/F approach, resulting in higher pediatric doses for achieving equivalent exposures with adults which was a less conservative approach. Therefore, the overall CLT/F scaling approach is more conservative and was chosen for the final model, which is shown in Table 6. The estimated parameters from bootstrap (see Table 6) were nearly identical to those estimated from the original dataset. All parameters were estimated with adequate precision.

[2] = test system: pediatric subjects with Fabry disease and amenable GLA variants; experiment: AT1001-020 Stage 1 safety in pediatric subjects (interim analysis)
Experimental: All safety analyses were performed using the safety population.
During Stage 1, urinalysis (albumin, protein, specific gravity, pH, and microscopy) was the only laboratory parameter collected at Month 1 and therefore, the only laboratory parameter assessed for the Interim Analysis.

[3] = Safety Population (N = 9), Stage 1

OC[C@H]1NC[C@H](O)[C@@H](O)[C@H]1O [migalastat, (2R,3S,4R,5S)-2-(hydroxymethyl) piperdine-3,4,5-triol]
EGFR-related exponential index on CL/F, Estimate (% RSE) ([1]; Bootstrap): 0.925 (5.25%); | Fractional Change in V2/F in subjects without Fabry disease (decrease in V2/F), Estimate (% RSE) ([1]; Bootstrap): −0.305 (12.3%); | Fractional Change in total CL/F in subjects without Fabry disease (decrease in total CL/F), Estimate (% RSE) ([1]; Bootstrap): −0.151 (23.5%); | Ka (intercept), Estimate (% RSE) ([1]; Bootstrap): 0.256 (8.60%); h^−1 | Ka (slope), Estimate (% RSE) ([1]; Bootstrap): 0.282 (7.45%); | Lag time, Estimate (% RSE) ([1]; Bootstrap): 0.176 (4.52%); h | Typical V2/F, Estimate (% RSE) ([1]; Bootstrap): 69.7 (4.8%); L | Typical Q/F, Estimate (% RSE) ([1]; Bootstrap): 1.01 (4.59%); L/h | Typical V3/F, Estimate (% RSE) ([1]; Bootstrap): 27.5 (11.9%); L | EGFR-related exponential index on CL/F, Estimate (% RSE) ([1]; NONMEM): 0.922 (5.64%); | Fractional Change in V2/F in subjects without Fabry disease (decrease in V2/F), Estimate (% RSE) ([1]; NONMEM): −0.306 (12.8%); | Fractional Change in total CL/F in subjects without Fabry disease (decrease in total CL/F), Estimate (% RSE) ([1]; NONMEM): 0.150 (24.9%); | Ka (intercept), Estimate (% RSE) ([1]; NONMEM): 0.256 (9.41%); h^−1 | Ka (slope), Estimate (% RSE) ([1]; NONMEM): 0.284 (9.12%); | Lag time, Estimate (% RSE) ([1]; NONMEM): 0.175 (4.65%); h | Typical V2/F, Estimate (% RSE) ([1]; NONMEM): 70.1 (5.29%); L | Typical Q/F, Estimate (% RSE) ([1]; NONMEM): 1.00 (5.17%); L/h | Typical V3/F, Estimate (% RSE) ([1]; NONMEM): 27.5 (11.7%); L | Average difference in migalastat exposure with subject weight ([1]; body weights between 50 and 170 kg): < 2 fold | Time within which the drug is considered fairly fully absorbed ([1]; oral, regardless of the absorption model chosen): 7 to 10 h | Changes in mean values from baseline for urinalysis parameters ([2]; Month 1): no clinically meaningful changes | Subjects with urine pH from normal at baseline to high at Month 1 ([2]; Safety Population (N = 9)): Three | Number of subjects discontinued due to TEAEs [2, 3]: 0 n (%) | Number of subjects with AEs leading to death [2, 3]: 0 n (%) | Number of subjects with TEAEs [2, 3]: 5 (55.6) n (%) | Number of subjects with related TEAEs [2, 3]: 1 (11.1) n (%) | Number of subjects with treatment-emergent SAEs [2, 3]: 0 n (%) | Number of TEAEs ([2]; Safety Population (N = 9), Stage 1, 123 mg capsule QOD): 6 n | Drug eruption, Number of Events ([2]; Safety Population, Stage 1): 1 (16.7) n (%) | Drug eruption, Number of Subjects ([2]; Safety Population, Stage 1): 1 (11.1) n (%) | Headache, Number of Events ([2]; Safety Population, Stage 1): 1 (16.7) n (%) | Headache, Number of Subjects ([2]; Safety Population, Stage 1): 1 (11.1) n (%) | Infections and infestations, Number of Events ([2]; Safety Population, Stage 1): 4 (66.7) n (%) | Infections and infestations, Number of Subjects ([2]; Safety Population, Stage 1): 4 (44.4) n (%) | Nervous system disorders, Number of Events ([2]; Safety Population, Stage 1): 1 (16.7) n (%) | Nervous system disorders, Number of Subjects ([2]; Safety Population, Stage 1): 1 (11.1) n (%) | Pharyngitis, Number of Events ([2]; Safety Population, Stage 1): 1 (16.7) n (%) | Pharyngitis, Number of Subjects ([2]; Safety Population, Stage 1): 1 (11.1) n (%) | Skin and subcutaneous tissue disorders, Number of Events ([2]; Safety Population, Stage 1): 1 (16.7) n (%) | Skin and subcutaneous tissue disorders, Number of Subjects ([2]; Safety Population, Stage 1): 1 (11.1) n (%) | Upper respiratory tract infection, Number of Events ([2]; Safety Population, Stage 1): 3 (50.0) n (%) | Upper respiratory tract infection, Number of Subjects ([2]; Safety Population, Stage 1): 3 (33.3) n (%) | Potentially clinically significant abnormalities in urinalysis parameters ([2]; Stage 1): no potentially clinically significant abnormalities | New safety findings ([2]; Stage 1, 123 mg, pediatric patients aged ≥12 to 16 years): No new safety findings
